# Measured values taken from patent publication US11925653B2, “Combination therapy effective against microorganisms, including drug resistant microorganisms” (Fleurir ABX LLC, priority 2021, dated 2024).
# Marks after values point to notes of the source that are not given here.
# Assays:
# Type in all cases: cell-based
# Escherichia coli [1] = experiment: MIC and synergy checkerboard assay, agar dilution
# Procedure: (§1) The described novel combination was tested against both reference, and clinically resistant strains of S. aureus, E, coli, K. pneumoniae, and P. aeruginosa. Reference and clinical isolates were obtained from the American Type Culture Collection (ATCC, Manasas, VA.) and International Health Management Associates, Inc. (Schaumberg, IL). Bacteria were cultured in trypticase soy broth, concentrated 10-fold by centrifugation, and cryopreserved in the same medium containing 20% glycerol by holding at −80° C. Every two weeks a small amount of frozen culture was removed aseptically, and streaked on fresh trypticase soy agar plates to act as a working inoculum. Following overnight growth at about 37° C., the plates were wrapped in parafilm, and held at about 4° C. Bacteria (4-5 colonies) were then aseptically transferred into broth growth medium for assays as needed.
# (§2) Minimum inhibitory concentration (MIC) assays were performed in a manner as described for the CLSI Agar dilution or broth microdilution assay guideline (see, Clinical Laboratory Standards Institute, 2009, Methods for Dilution Antimicrobial Susceptibility Tests for Bacteria That Grow Aerobically; Approved Standard, Eighth Edition, M07-A8, Vol. 29, No. 2). For example, known antibiotics or the compositions described herein were dissolved, serially diluted, and then added to tempered molten Mueller-Hinton Agar before pouring of plates; or were dissolved, and then serially diluted in 100 μL cation-adjusted Mueller-Hinton broth across the assay plate in the classical 2-fold geometric format. D-glucose-6-phosphate was included as a medium supplement in both agar, and broth at a concentration of 50 mg/L. Antibiotic concentrations for agar assay were at the final concentration. Antibiotic concentrations for broth microdilution in each well at this point were double what the final assay concentration would be. Bacterial inocula were prepared by swabbing several colonies from a fresh agar plate, and re-suspending the bacteria to a density that was the 0.5 McFarland turbidity standard, considered close or equivalent to 1×10^8 CFU/mL. For agar dilution, a steers replicator was utilized to deliver 1×10^4 CFU/spot. For broth microdilution, the bacterial inocula were diluted in the cation-adjusted Mueller-Hinton broth to 1×10^6 CFU/mL, and 100 μL was overlayered onto the wells containing a diluted antibiotic or a composition described. Following incubation as per the guideline, results were recorded as growth or no growth, and the lowest concentration of the antibiotic or the composition described where no growth was observed was declared the MIC.
# (§3) To assay for synergy of antibacterial combinations, a recognized synergy checkerboard assay, adapted from the CLSI guideline microdilution assay, was utilized (see Eliopoulos, G. M., and Moellering, R. C, Jr., 1996. Antimicrobial Combinations, pg. 330-396. In: Lorian, V. (Ed.), Antibiotics in Laboratory Medicine, 4th Ed., Williams & Wilkins; Baltimore, MD). In the case of the agar dilution method, each antibiotic alone, or in combination was added to agar prior to plate pouring. For broth microdilution, the first compound (or antibiotic or agent) was diluted in cation-adjusted Mueller-Hinton broth across the plate along the horizontal axis with each well in a row containing 50 μL of an identical concentration of compound (or antibiotic). Along the vertical axis a dilution series of the second compound (or antibiotic) was dispensed. At this point the drug concentrations are four-fold of the final desired working concentration. […] Following incubation, wells with no growth are noted. […] FIC=(MIC-A combination/MIC-A alone)+(MIC-B combination/MIC-B alone).
# (§4) In the above, FIC: Synergy=FIC<0.5; Additive=FIC>0.5-1; Indifferent=FIC>1-2; Antagonism=FIC>2-4.
# P. aeruginosa = experiment: MIC and synergy checkerboard assay, agar dilution
# Procedure: as §1, §2, §3, §4
# K. pneumonia = experiment: MIC and synergy checkerboard assay, agar dilution
# Procedure: as §1, §2, §3, §4
# Escherichia coli [2] = experiment: MIC and synergy checkerboard assay, broth microdilution
# Procedure: as §1, §2, §3, §4
# Pseudomonas aeruginosa = experiment: as above
# Procedure: as §1, §2, §3, §4
# K. pneumoniae = experiment: as above
# Procedure: as §1, §2, §3, §4
# Staphylococcus aureus = experiment: as above
# Procedure: as §1, §2, §3, §4
smiles,measurement,setting,value
"C[C@@H]1O[C@@H]1P(=O)(O)O [Fosfomycin, cis-1,2-epoxypropyl phosphonic acid]",MIC (Combo as F/DP/SM; second compound as DP/SM),Escherichia coli [1]; Escherichia coli 846439,64 µg/mL
same,MIC (Combo as F/DP/SM; second compound as DP/SM),Escherichia coli [1]; Escherichia coli 846446,4 µg/mL
same,MIC (Combo as F/DP/SM; second compound as DP/SM),Escherichia coli [1]; Escherichia coli 846450,32 µg/mL
same,MIC (Combo as F/DP/SM; second compound as DP/SM),Escherichia coli [1]; Escherichia coli 846455,128* μg/ml
same,MIC (Combo as F/DP/SM; second compound as DP/SM),Escherichia coli [1]; Escherichia coli 847149,128* μg/ml
same,MIC (Combo as F/DP/SM; second compound as DP/SM),Escherichia coli [1]; Escherichia coli 854535,128* μg/ml
same,MIC (Combo as F/DP/SM; second compound as DP/SM),Escherichia coli [1]; Escherichia coli 854566,128* μg/ml
same,MIC (Combo as F/DP/SM; second compound as DP/SM),Escherichia coli [1]; Escherichia coli 857021,64 µg/mL
same,MIC (Combo as F/DP/SM; second compound as DP/SM),Escherichia coli [1]; Escherichia coli 863078,128* μg/ml
same,MIC (Combo as F/DP/SM; second compound as DP/SM),Escherichia coli [1]; Escherichia coli 863686,64 µg/mL
same,MIC (Combo as F/DP/SM; second compound as DP/SM),Escherichia coli [1]; Escherichia coli ATCC 25922,16 µg/mL
same,MIC (Combo as F/DP/SM; second compound as DP/SM),P. aeruginosa; P. aeruginosa 826882,128* μg/ml
same,MIC (Combo as F/DP/SM; second compound as DP/SM),P. aeruginosa; P. aeruginosa 880238,128* μg/ml
same,MIC (Combo as F/DP/SM; second compound as DP/SM),P. aeruginosa; P. aeruginosa 889058,128* μg/ml
same,MIC (Combo as F/DP/SM; second compound as DP/SM),P. aeruginosa; P. aeruginosa 906939,128* μg/ml
same,MIC (Combo as F/DP/SM; second compound as DP/SM),P. aeruginosa; P. aeruginosa 914881,128* μg/ml
same,MIC (Combo as F/DP/SM; second compound as DP/SM),P. aeruginosa; P. aeruginosa 924190,256* μg/ml
same,MIC (Combo as F/DP/SM; second compound as DP/SM),P. aeruginosa; P. aeruginosa 926474,64 µg/mL
same,MIC (Combo as F/DP/SM; second compound as DP/SM),P. aeruginosa; P. aeruginosa 945543,128* μg/ml
same,MIC (Combo as F/DP/SM; second compound as DP/SM),P. aeruginosa; P. aeruginosa 945545,128* μg/ml
same,MIC (Combo as F/DP/SM; second compound as DP/SM),P. aeruginosa; P. aeruginosa 945748,128* μg/ml
same,MIC (Combo as F/DP/SM; second compound as DP/SM),P. aeruginosa; P. aeruginosa PAO1,32 µg/mL
same,MIC (Combo as F/DP/SM; second compound as DP/SM),K. pneumonia; K. pneumonia 848788,256* μg/ml
same,MIC (Combo as F/DP/SM; second compound as DP/SM),K. pneumonia; K. pneumonia 857147,32 µg/mL
same,MIC (Combo as F/DP/SM; second compound as DP/SM),K. pneumonia; K. pneumonia 857187,128* μg/ml
same,MIC (Combo as F/DP/SM; second compound as DP/SM),K. pneumonia; K. pneumonia 868968,256* μg/ml
same,MIC (Combo as F/DP/SM; second compound as DP/SM),K. pneumonia; K. pneumonia 868972,128* μg/ml
same,MIC (Combo as F/DP/SM; second compound as DP/SM),K. pneumonia; K. pneumonia 869028,256* μg/ml
same,MIC (Combo as F/DP/SM; second compound as DP/SM),K. pneumonia; K. pneumonia 870964,256* μg/ml
same,MIC (Combo as F/DP/SM; second compound as DP/SM),K. pneumonia; K. pneumonia 875638,64 µg/mL
same,MIC (Combo as F/DP/SM; second compound as DP/SM),K. pneumonia; K. pneumonia 892483,256* μg/ml
same,MIC (Combo as F/DP/SM; second compound as DP/SM),K. pneumonia; K. pneumonia 926439,128* μg/ml
same,MIC (Combo as F/DP/SM; second compound as DP/SM),Escherichia coli [2]; Escherichia coli 846439,32 µg/mL
same,MIC (Combo as F/DP/SM; second compound as DP/SM),Escherichia coli [2]; Escherichia coli 846446,2 µg/mL
same,MIC (Combo as F/DP/SM; second compound as DP/SM),Escherichia coli [2]; Escherichia coli 846450,16 µg/mL
same,MIC (Combo as F/DP/SM; second compound as DP/SM),Escherichia coli [2]; Escherichia coli 857021,32 µg/mL
same,MIC (Combo as F/DP/SM; second compound as DP/SM),Escherichia coli [2]; Escherichia coli 863686,32 µg/mL
same,MIC (Combo as F/DP/SM; second compound as DP/SM),Escherichia coli [2]; Escherichia coli (854535),64 µg/mL
same,MIC (Combo as F/DP/SM; second compound as DP/SM),Escherichia coli [2]; Escherichia coli (928017),64 µg/mL
same,MIC (Combo as F/DP/SM; second compound as DP/SM),Escherichia coli [2]; Escherichia coli (ATCC 25922),8 µg/mL
same,MIC (Combo as F/DP/SM; second compound as DP/SM),Pseudomonas aeruginosa; P. aeruginosa 826882,64 µg/mL
same,MIC (Combo as F/DP/SM; second compound as DP/SM),Pseudomonas aeruginosa; P. aeruginosa 880238,64 µg/mL
same,MIC (Combo as F/DP/SM; second compound as DP/SM),Pseudomonas aeruginosa; P. aeruginosa 906939,64 µg/mL
same,MIC (Combo as F/DP/SM; second compound as DP/SM),Pseudomonas aeruginosa; P. aeruginosa 926474,32 µg/mL
same,MIC (Combo as F/DP/SM; second compound as DP/SM),Pseudomonas aeruginosa; P. aeruginosa 945543,32 µg/mL
same,MIC (Combo as F/DP/SM; second compound as DP/SM),Pseudomonas aeruginosa; P. aeruginosa 945545,64 µg/mL
same,MIC (Combo as F/DP/SM; second compound as DP/SM),Pseudomonas aeruginosa; P. aeruginosa 945748,64 µg/mL
same,MIC (Combo as F/DP/SM; second compound as DP/SM),Pseudomonas aeruginosa; Pseudomonas aeruginosa (924190),256* μg/ml
same,MIC (Combo as F/DP/SM; second compound as DP/SM),Pseudomonas aeruginosa; Pseudomonas aeruginosa (985543),128* μg/ml
same,MIC (Combo as F/DP/SM; second compound as DP/SM),K. pneumoniae; K. pneumoniae 848788,>64* μg/ml
same,MIC (Combo as F/DP/SM; second compound as DP/SM),K. pneumoniae; K. pneumoniae 857147,16 µg/mL
same,MIC (Combo as F/DP/SM; second compound as DP/SM),K. pneumoniae; K. pneumoniae 857187,64 µg/mL
same,MIC (Combo as F/DP/SM; second compound as DP/SM),K. pneumoniae; K. pneumoniae 868968,>64* μg/ml
same,MIC (Combo as F/DP/SM; second compound as DP/SM),K. pneumoniae; K. pneumoniae 868972,64 µg/mL
same,MIC (Combo as F/DP/SM; second compound as DP/SM),K. pneumoniae; K. pneumoniae 869028,>64* μg/ml
same,MIC (Combo as F/DP/SM; second compound as DP/SM),K. pneumoniae; K. pneumoniae 875638,32 µg/mL
same,MIC (Combo as F/DP/SM; second compound as DP/SM),K. pneumoniae; K. pneumoniae 892483,>64* μg/ml
same,MIC (Combo as F/DP/SM; second compound as DP/SM),K. pneumoniae; K. pneumoniae 926439,64 µg/mL
same,MIC (Combo as F/DP/SM; second compound as DP/SM),Staphylococcus aureus; S. aureus 829025 (MRSA strains),4 µg/mL
same,MIC (Combo as F/DP/SM; second compound as DP/SM),Staphylococcus aureus; S. aureus 829049 (MRSA strains),8 µg/mL
same,MIC (Combo as F/DP/SM; second compound as DP/SM),Staphylococcus aureus; S. aureus 903887 (MRSA strains),8 µg/mL
same,MIC (Combo as F/DP/SM; second compound as DP/SM),Staphylococcus aureus; S. aureus 920516 (MRSA strains),2 µg/mL
same,MIC (Combo as F/DP/SM; second compound as DP/SM),Staphylococcus aureus; S. aureus 920962 (MRSA strains),2 µg/mL
same,MIC (Combo as F/DP/SM; second compound as DP/SM),Staphylococcus aureus; S. aureus 927596 (MRSA strains),8 µg/mL
same,MIC (Combo as F/DP/SM; second compound as DP/SM),Staphylococcus aureus; S. aureus 938125 (MRSA strains),4 µg/mL
same,MIC (Combo as F/DP/SM; second compound as DP/SM),Staphylococcus aureus; S. aureus 953041 (MRSA strains),8 µg/mL
same,MIC (Combo as F/DP/SM; second compound as DP/SM),Staphylococcus aureus; S. aureus 956270 (MRSA strains),28 µg/mL
same,MIC (Combo as F/DP/SM; second compound as DP/SM),Staphylococcus aureus; S. aureus 956362 (MRSA strains),16 µg/mL
same,MIC (Combo as F/DP/SM; second compound as DP/SM),Staphylococcus aureus; S. aureus 967287 (MRSA strains),8 µg/mL
same,MIC (Combo as F/DP/SM; second compound as DP/SM),Staphylococcus aureus; S. aureus 974980 (MRSA strains),8 µg/mL
same,MIC (Combo as F/DP/SM; second compound as DP/SM),Staphylococcus aureus; S. aureus 979234 (MRSA strains),16 µg/mL
same,MIC (Combo as F/DP/SM; second compound as DP/SM),Staphylococcus aureus; S. aureus 1045190 (MRSA strains),2 µg/mL
same,MIC (Combo as F/DP/SM; second compound as DP/SM),Staphylococcus aureus; Staphylococcus aureus (918019 - MRSA),32 µg/mL
same,MIC (Combo as F/DP/SM; second compound as DP/SM),Staphylococcus aureus; Staphylococcus aureus (959797 - MRSA),16 µg/mL
same,MIC (Combo as F/DP/SM; second compound as DP/SM),Staphylococcus aureus; Staphylococcus aureus (ATCC 29213 - MSSA),32 µg/mL
same,MIC (Combo as F/DP/SM; second compound as DP/SM),Staphylococcus aureus; Staphylococcus aureus (ATCC 33591),64 µg/mL
same,MIC (Combo as F/DP/SM; second compound as DP/SM),Staphylococcus aureus; Staphylococcus aureus (MGH-04),128* μg/ml
same,MIC (Combo as F/DP/SM; second compound as DP/SM),Staphylococcus aureus; Staphylococcus aureus (USA-300 CDC- MRSA),64 µg/mL
